# According to US12370187B2, “Composition containing antitumor drug, and preparation method thereof and use thereof” (KUNSHAN XINYUNDA BIOTECH CO., LTD., priority 2021, dated 2025):
# Counter-ions that a name gives are not always drawn. Like-named read-outs stand apart in the source and are kept apart here.
# Columns and labels:
# [1] = system: human colon cancer cell line SW620; details: for RTV (D 41) / T/C (%) RTV / T/C (%) TW / Tumor Weight (mg) (D 41): D 41
# [2] = system: human triple-negative breast cancer cell line MDA-MB-231; experiment: In vivo pharmacodynamic study on MDA-MB-231 tumor (Example 24); details: for Body weight increase compared with before administration: mouse, in vivo
# Experimental: One week after the last administration, tumors were taken from all the mice and weighed.
# The clinical symptoms observed during the experiment were recorded in the raw data. Tumor volume was calculated by the following formula: […]
# Relative tumor proliferation rate (T/C (%)) represents a ratio in percentage of relative tumor volumes or tumor weights of a treatment group and a control group at a time point, which was calculated by the following formula: […]
# Relative tumor inhibition rate (TGI (%)) was calculated by the following formula: […]
# [3] = system: human colon cancer cell line HCT116; details: for RTV / Tumor Weight: D 43
# Text: One week after the last dose, tumors were taken from all mice, weighed, and photographed.
# [4] = system: human triple-negative breast cancer MDA-MB-231; experiment: Anti-breast tumor activity, subcutaneously implanted MDA-MB-231 (Example 22); type: in vivo, BALB/c nude mice; details: Protocol I; 60 mg/kg iv
# [5] = system: human ovarian cancer cell line SKOV-3; details: for RTV / Tumor Weight: D 42
# Text: SKOV-3 tumor masses were subcutaneously inoculated to 80 BALB/c nude mice.
# human colon cancer HT-29 = experiment: Anti-colon cancer activity, subcutaneously implanted HT-29 (Example 23); type: in vivo, BALB/c nude mice; details: Protocol I; 60 mg/kg iv
# [6] = system: human colon cancer cell line SW620; experiment: In vivo pharmacodynamic study in SW620 model (Example 34); details: 60 mg/kg iv QW × 4
# tumor cells = details: Zhang et al. 2004; cited from earlier work
# [7] = CPT-11 80 mg/kg iv QW × 4, 2 surviving animals
compound,measurement,setting,value
"CCc1c2c(nc3ccc(OC(=O)N4CCC(N5CCCCC5)CC4)cc13)-c1cc3c(c(=O)n1C2)COC(=O)[C@]3(O)CC [CPT-11, irinotecan hydrochloride]",RTV (D 41),[1]; 60 mg/kg,4.69 ± 1.12
same,T/C (%) RTV,[1]; 60 mg/kg,28%
same,T/C (%) TW,[1]; 60 mg/kg,27%
same,Tumor Weight (mg) (D 41),[1]; 60 mg/kg,465 ± 91 mg
same,RTV (D 41),[1]; 80 mg/kg,5.95 ± 1.22
same,T/C (%) RTV,[1]; 80 mg/kg,36%
same,T/C (%) TW,[1]; 80 mg/kg,28%
same,Tumor Weight (mg) (D 41),[1]; 80 mg/kg,495 ± 91 mg
same,Body weight reduction at the end of the experiment compared with before administration,[1]; CPT-11 high dose (80 mg/kg),5.810%
same,Body weight reduction at the end of the experiment compared with before administration,[1]; CPT-11 low dose (60 mg/kg),0.99%
same,Animal death,[2]; CPT-11 60 mg/kg,No animal died
same,T/C (%) RTV,[2]; CPT-11 60 mg/kg iv QW × 3,24%
same,T/C (%) TW,[2]; CPT-11 60 mg/kg iv QW × 3,28%
same,RTV,"[2]; CPT-11 60 mg/kg iv QW × 3, D33",4.59 ± 1.04
same,T/C (%) RTV,[2]; CPT-11 80 mg/kg iv QW × 3,13%
same,T/C (%) TW,[2]; CPT-11 80 mg/kg iv QW × 3,16%
same,RTV,"[2]; CPT-11 80 mg/kg iv QW × 3, D33",2.46 ± 0.41
same,Tumor Weight,"[2]; CPT-11 80 mg/kg iv QW × 3, D33",391 ± 143 mg
same,Animal death,"[2]; CPT-11 80 mg/kg, 7 animals",one animal died
same,Body weight increase compared with before administration,[2]; 60 mg/kg,2.41%
same,Body weight increase compared with before administration,[2]; 80 mg/kg,1.950%
same,Reduction in body weight at the end of the experiment compared to before administration,[3]; CPT-11 60 mg/kg,14.41%
same,T/C (%) RTV,[3]; CPT-11 60 mg/kg iv QW × 4,35%
same,T/C (%) TW,[3]; CPT-11 60 mg/kg iv QW × 4,26%
same,RTV,[3]; CPT-11 60 mg/kg iv QW × 4,4.42 ± 1.05
same,Tumor Weight,[3]; CPT-11 60 mg/kg iv QW × 4,370 ± 87 mg
same,Reduction in body weight at the end of the experiment compared to before administration,[3]; CPT-11 80 mg/kg,16.00%
same,T/C (%) RTV,[3]; CPT-11 80 mg/kg iv QW × 4,16%
same,T/C (%) TW,[3]; CPT-11 80 mg/kg iv QW × 4,12%
same,RTV,[3]; CPT-11 80 mg/kg iv QW × 4,1.95 ± 0.31
same,Tumor Weight,[3]; CPT-11 80 mg/kg iv QW × 4,173 ± 34 mg
same,Tumor Inhibition Rate,[4],71%
same,T/C (%) RTV,[5]; CPT-11 60 mg/kg iv QW × 4,64%
same,T/C (%) TW,[5]; CPT-11 60 mg/kg iv QW × 4,67%
same,RTV,[5]; CPT-11 60 mg/kg iv QW × 4,9.20 ± 0.79
same,Tumor Weight,[5]; CPT-11 60 mg/kg iv QW × 4,1179 ± 150 mg
same,T/C (%) RTV,[5]; CPT-11 80 mg/kg iv QW × 4,79%
same,T/C (%) TW,[5]; CPT-11 80 mg/kg iv QW × 4,95%
same,RTV,[5]; [7],11.44 ± 0.21
same,Tumor Weight,[5]; [7],1664 ± 258 mg
same,Animals died,"[5]; CPT-11 80 mg/kg, 8 animals",6
same,Body weight increase at the end of the experiment,"[5]; CPT-11 high dose (80 mg/kg), two living animals",11.94%
same,Body weight increase at the end of the experiment,[5]; CPT-11 low dose (60 mg/kg),6.97%
same,Tumor Inhibition Rate,human colon cancer HT-29,47%
same,T/C (%) TV,[6],8%
same,T/C (%) TW,[6],7%
same,TW (mg) (mean ± SEM),[6],99 ± 43 mg
same,"Body Weight (g, mean ± SEM) Day 11",[6]; Day 11,18.5 ± 0.6 g
same,TV (mm^3) Day 11 (mean ± SEM),[6]; Day 11,157 ± 18 mm^3
same,"Body Weight (g, mean ± SEM) Day 39",[6]; Day 39,19.2 ± 0.7 g
same,TV (mm^3) Day 39 (mean ± SEM),[6]; Day 39,154 ± 57 mm^3
same,Body Weight Change (%),[6]; Day 39 vs Day 11,+3.8%
"CCc1c2c(nc3ccc(O)cc13)-c1cc3c(c(=O)n1C2)COC(=O)[C@]3(O)CC [SN-38, 7-ethyl-10-hydroxycamptothecin]",Efficacy on some tumor cells relative to CPT-11,tumor cells,100-1000 times
